Experimental data reported in ChEMBL document CHEMBL1201862, “PubChem BioAssay data set” (2004).
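Grown in 96-well plates, cells were treated for 48 hours with each compound at five concentrations. Insufficient inhibition: endpoint recorded as highest concentration tested. Abbreviation: GI50, concentration required for 50% inhibition of growth.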 The source made the active and inactive calls. Cut-off read from the data, not from the text of the source: active = GI50 up to about 1.1 µM and inactive = higher.

Legend:
Test in all cases: growth of human tumour cells (NCI), 48 h
K562 = test system: K562
HOP-62 = test system: HOP-62
KM12 = test system: KM12
HCT-15 = test system: HCT-15
Malme-3M = test system: Malme-3M
M14 = test system: M14
SNB-19 = test system: SNB-19
SN12C = test system: SN12C
Hs-578T = test system: Hs-578T
SK-MEL-28 = test system: SK-MEL-28
OVCAR-4 = test system: OVCAR-4
DU-145 = test system: DU-145
A549 = test system: A549
HL-60 = test system: HL-60
IGROV-1 = test system: IGROV-1
UACC-62 = test system: UACC-62
OVCAR-5 = test system: OVCAR-5
PC-3 = test system: PC-3
MOLT-4 = test system: MOLT-4
SK-MEL-2 = test system: SK-MEL-2
SK-MEL-5 = test system: SK-MEL-5
CAKI-1 = test system: CAKI-1
HCT-116 = test system: HCT-116
OVCAR-8 = test system: OVCAR-8
SK-OV-3 = test system: SK-OV-3
786-0 = test system: 786-0
MDA-MB-435 = test system: MDA-MB-435
COLO 205 = test system: COLO 205
NCI-H23 = test system: NCI-H23
MDA-MB-231 = test system: MDA-MB-231
HCC 2998 = test system: HCC 2998
TK-10 = test system: TK-10
T47D = test system: T47D
SNB-75 = test system: SNB-75
ACHN = test system: ACHN
MCF7 = test system: MCF7
HT-29 = test system: HT-29
NCI-H522 = test system: NCI-H522
NCI-H226 = test system: NCI-H226
UO-31 = test system: UO-31
SW-620 = test system: SW-620
RPMI-8226 = test system: RPMI-8226
MDA-N = test system: MDA-N
A498 = test system: A498
SF-539 = test system: SF-539
BT-549 = test system: BT-549
SF-295 = test system: SF-295
SF-268 = test system: SF-268
CCRF-CEM = test system: CCRF-CEM
U-251 = test system: U-251
RXF 393 = test system: RXF 393
UACC-257 = test system: UACC-257
NCI/ADR-RES = test system: NCI/ADR-RES
OVCAR-3 = test system: OVCAR-3
SR = test system: SR
NCI-H460 = test system: NCI-H460
LOX IMVI = test system: LOX IMVI

Compound: O=C(NNC(=S)NC1CCCCC1)C12CC3CC(CC(C3)C1)C2
- GI50 (K562): > 100 µM (inactive)
- GI50 (HOP-62): > 100 µM (inactive)
- GI50 (KM12): > 100 µM (inactive)
- GI50 (HCT-15): > 100 µM
- GI50 (Malme-3M): > 100 µM (inactive)
- GI50 (M14): > 100 µM (inactive)
- GI50 (SNB-19): > 100 µM (inactive)
- GI50 (SN12C): > 100 µM (inactive)
- GI50 (Hs-578T): > 100 µM (inactive)
- GI50 (SK-MEL-28): > 100 µM (inactive)
- GI50 (OVCAR-4): > 100 µM (inactive)
- GI50 (DU-145): > 100 µM (inactive)
- GI50 (A549): > 100 µM (inactive)
- GI50 (HL-60): > 100 µM (inactive)
- GI50 (IGROV-1): > 100 µM (inactive)
- GI50 (UACC-62): > 100 µM (inactive)
- GI50 (OVCAR-5): > 100 µM (inactive)
- GI50 (PC-3): > 100 µM (inactive)
- GI50 (MOLT-4): > 100 µM (inactive)
- GI50 (SK-MEL-2): > 100 µM (inactive)
- GI50 (SK-MEL-5): > 100 µM (inactive)
- GI50 (CAKI-1): > 100 µM (inactive)
- GI50 (HCT-116): > 100 µM (inactive)
- GI50 (OVCAR-8): > 100 µM (inactive)
- GI50 (SK-OV-3): > 100 µM (inactive)
- GI50 (786-0): 61.8 µM (inactive)
- GI50 (MDA-MB-435): > 100 µM (inactive)
- GI50 (COLO 205): > 100 µM (inactive)
- GI50 (NCI-H23): > 100 µM (inactive)
- GI50 (MDA-MB-231): > 100 µM (inactive)
- GI50 (HCC 2998): > 100 µM (inactive)
- GI50 (TK-10): > 100 µM (inactive)
- GI50 (T47D): > 100 µM (inactive)
- GI50 (SNB-75): 52.2 µM (inactive)
- GI50 (ACHN): > 100 µM (inactive)
- GI50 (MCF7): > 100 µM (inactive)
- GI50 (HT-29): > 100 µM (inactive)
- GI50 (NCI-H522): > 100 µM (inactive)
- GI50 (NCI-H226): > 100 µM (inactive)
- GI50 (UO-31): > 100 µM (inactive)
- GI50 (SW-620): > 100 µM (inactive)
- GI50 (RPMI-8226): > 100 µM (inactive)
- GI50 (MDA-N): > 100 µM (inactive)
- GI50 (A498): > 100 µM (inactive)
- GI50 (SF-539): > 100 µM (inactive)
- GI50 (BT-549): > 100 µM (inactive)
- GI50 (SF-295): > 100 µM (inactive)
- GI50 (SF-268): > 100 µM (inactive)
- GI50 (CCRF-CEM): > 100 µM (inactive)
- GI50 (U-251): > 100 µM (inactive)
- GI50 (RXF 393): > 100 µM (inactive)
- GI50 (UACC-257): > 100 µM (inactive)
- GI50 (NCI/ADR-RES): > 100 µM (inactive)
- GI50 (OVCAR-3): > 100 µM (inactive)
- GI50 (SR): 0.637 µM (active)
- GI50 (NCI-H460): > 100 µM (inactive)
- GI50 (LOX IMVI): > 100 µM (inactive)
